In paper PMC4845953 (Journal of materials chemistry. B, Materials for biology …, 2016):
Non-standard residues stand in square brackets, D forms with d. Residues, ends and D or L forms follow the SMILES beside them. *: point of attachment. d(pY) = N[C@H](Cc1ccc(OP(=O)(O)O)cc1)C(=O)O; Acetyl(2-naphthyl) = O=C(Cc1ccc2ccccc2c1)*; pY = N[C@@H](Cc1ccc(OP(=O)(O)O)cc1)C(=O)O

Legend:
HeLa cells = settings: 48 h
proteinase K = proteinase K (Parengyodontium album, UniProt P06873)
[1] = format: physicochemical; settings: pH 7.4
[2] = format: physicochemical; settings: pH 7.4; remark: listed apart in the source
[3] = format: physicochemical; settings: pH 7.4; remark: listed apart in the source

proteinase K, sequence (P06873 106-384): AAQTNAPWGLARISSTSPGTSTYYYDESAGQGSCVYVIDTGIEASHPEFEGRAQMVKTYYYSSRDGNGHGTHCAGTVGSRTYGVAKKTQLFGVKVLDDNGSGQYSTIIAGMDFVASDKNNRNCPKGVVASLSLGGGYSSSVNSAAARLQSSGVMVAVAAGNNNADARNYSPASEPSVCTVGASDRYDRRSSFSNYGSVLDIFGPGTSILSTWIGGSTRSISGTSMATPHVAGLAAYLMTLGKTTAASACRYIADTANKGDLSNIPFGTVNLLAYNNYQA

| SMILES | IC50 (HeLa cells) | proteolytic stability towards proteinase K (proteinase K) | ALP gel: dynamic strain sweep, Max. G′ [1] | ALP gel: dynamic strain sweep, critical strains [1] | time to hydrogel after addition of ALP [2] | ALP gel: TEM fiber width [3] |
| --- | --- | --- | --- | --- | --- | --- |
| NC(=O)CC[C@@H](NC(=O)[C@@H](CCC(N)=O)NC(=O)[C@@H](CC(N)=O)NC(=O)[C@@H](CC(N)=O)NC(=O)CNC(=O)[C@@H](Cc1ccccc1)NC(=O)[C@@H](Cc1ccccc1)NC(=O)Cc1ccc2ccccc2c1)C(=O)N[C@H](CC(N)=O)C(=O)N[C@H](Cc1ccc(OP(=O)(O)O)cc1)C(=O)O [Precursor D-3P, N’ffgnnqqnyp] ({Acetyl(2-naphthyl)}-[dF][dF]G[dN][dN][dQ][dQ][dN][d(pY)]-OH) | > 500 µM | high resistance | – | – | – | – |
| NC(=O)CC[C@@H](NC(=O)[C@@H](CCC(N)=O)NC(=O)[C@@H](CC(N)=O)NC(=O)[C@@H](CC(N)=O)NC(=O)CNC(=O)[C@@H](Cc1ccccc1)NC(=O)[C@@H](Cc1ccccc1)NC(=O)Cc1ccc2ccccc2c1)C(=O)N[C@H](CC(N)=O)C(=O)N[C@H](Cc1ccc(O)cc1)C(=O)O [Precursor D-3] ({Acetyl(2-naphthyl)}-[dF][dF]G[dN][dN][dQ][dQ][dN][dY]-OH) | – | – | 132 Pa | 7.0% | – | – |
| NC(=O)CC[C@H](NC(=O)[C@H](CCC(N)=O)NC(=O)[C@H](CC(N)=O)NC(=O)[C@H](CC(N)=O)NC(=O)CNC(=O)[C@H](Cc1ccccc1)NC(=O)[C@H](Cc1ccccc1)NC(=O)Cc1ccc2ccccc2c1)C(=O)N[C@@H](CC(N)=O)C(=O)N[C@@H](Cc1ccc(OP(=O)(O)O)cc1)C(=O)O [Precursor L-3P, N’FFGNNQQNYp] ({Acetyl(2-naphthyl)}-FFGNNQQN[pY]-OH) | 476 ± 21.4 µM | almost completely degrade | 32.8 Pa | 13.2% | 10 min | 8 ± 2 nm |
| NC(=O)CC[C@H](NC(=O)[C@H](CCC(N)=O)NC(=O)[C@H](CC(N)=O)NC(=O)[C@H](CC(N)=O)NC(=O)CNC(=O)[C@H](Cc1ccccc1)NC(=O)[C@H](Cc1ccccc1)NC(=O)Cc1ccc2ccccc2c1)C(=O)N[C@@H](CC(N)=O)C(=O)N[C@@H](Cc1ccc(O)cc1)C(=O)O [Precursor L-3] ({Acetyl(2-naphthyl)}-FFGNNQQNY-OH) | – | – | 33 Pa | 13.2% | – | about 8 ± 2 nm |
